This is an account of results in patent US9410142B2, “Dendrimer-based excipients for the attenuation of protein aggregation” (Massachusetts Institute of Technology, priority 2010, dated 2016).

The target in data set [1] is Concanavalin A (Con A) (Canavalia ensiformis, UniProt P02866). In words: Con A aggregation / shelf-life at pH 6.5 and 37° C. Format: physicochemical. The settings on record: isotonic concentrations, 40 mM sodium phosphate pH 6.5, 37° C., time for 5% loss of protein vs no additive. As to the method:
This Shelf-Life Extension Factor was determined by comparing the length of time, t95, for a 5% loss of protein when in the presence of the compounds to the original length of time, t95,0 for a 5% loss. For comparison purposes, isotonic concentrations (as determined by VPO) of the compounds were used and Shelf-Life Extension Factor values for commonly used excipients at isotonic concentrations are shown as well. Shelf-life values of aCgn were determined at 52.5° C. and at 37° C. for Con A.

Data set [2] can be described thus: Partial molar volume from density measurements of dendrimer only solutions. The format is physicochemical.
In data set [3] the target is T1, α-chymotrypsinogen A (aCgn) (Bos taurus, UniProt P00766). In words: DSC denaturation midpoint temperature (Tm) of aCgn. Format: physicochemical, Bovine. The settings on record: for dTm/d[3] aCgn denaturation midpoint temperature increment: 1 mg/mL aCgn, 20 mM sodium citrate pH 5, maximum dendrimer 0.2 mol/L; for rate of increase of Tm of aCgn: concentrations less than 0.2 mol/L. On the procedure: The thermodynamic stability of aCgn in the presence of the arginine salts was determined by DSC (Microcal VP-Differential Scanning calorimeter located in the Biophysical Instrumentation Facility (BIF) at MIT). Each reading began with a minimum of three buffer-buffer up and down scans (in this case, the buffer also contains the cosolute of interest) to establish a reproducible thermal history followed by a single protein-buffer up scan. aCgn was analyzed at a concentration of 1 mg/mL in a 20 mM sodium citrate pH 5 buffer containing the cosolute of interest and a scan rate of 90° C./hour. The data was analyzed in the MicroCal Origin® plotting software. In the analysis, the last buffer-buffer reference scan was first subtracted from the data and then the data was normalized with respect to the protein concentration, cell volume, and scan rate. The baseline (which was progressed through the peak) was then subtracted from the plot and the denaturation midpoint temperature, Tm, was taken as the temperature at the peak maximum of the unfolding event. For each arginine salt, three concentrations (including zero concentration) were tested and Tm values with respect to cosolute concentration were fitted to a linear trend.
The thermostability of aCgn at 1 mg/mL in the presence of the modified dendrimers was assessed by determining the denaturation midpoint temperature (Tm) from DSC scans, which is a qualitative indicator of how the conformational stability of the protein is perturbed. Ghosh K et al. (2009) Proc Natl Acad Sci USA 106:10649-10654.

Data set [4] concerns the target T1, α-chymotrypsinogen A (aCgn). In words: aCgn aggregation (monomer loss) at 52.5° C. by size exclusion HPLC. The settings on record: for relative rate constant for aCgn monomer loss: additive concentration near 0.2 M; for aCgn t95/t95, 0 (Shelf-Life Extension Factor): isotonic concentrations, 20 mM sodium citrate pH 5, 52.5° C., time for 5% loss of protein vs no additive. The format is physicochemical, Bovine. As to the method:
The aggregation of aCgn was accelerated by incubating samples at an elevated temperature. […] In addition to all aggregation experiments being conducted at that temperature, all samples contained 10 mg/mL aCgn, held at pH 5.0 using a 20 mM sodium citrate buffer. 50 μL aliquots of each protein-cosolute mixture were placed in 0.2 mL polymerase chain reaction (PCR) tubes and then incubated in a Bio-Rad Mycycler thermal cycler with a timer initiated when the thermal cycler reached the desired temperature. Each series contained 12 samples and up to 8 different mixtures were tested at the same time during any given experiment. Samples were removed periodically and immediately placed in an ice bath to quench the aggregation reaction. The length of each experiment was planned so that the extent of reaction was such that at least 20% of the protein aggregated, making changes in the rate of aggregation pronounced. After at least five minutes in the ice bath, the samples were briefly spun in a minicentrifuge to remove precipitated aggregates and then transferred to autosampler vials.
All aCgn samples were first treated with phenylmethylsulfonyl fluoride to inhibit residual amounts of active enzyme and, after dialysis, solutions were frozen, rather than lyophilized, in 0.3 mL aliquots and used within 6 months. […] Solutions for the aggregation study were prepared by first preparing a solution of the cosolute of interest in a 20 mM sodium citrate pH 5 buffer at a concentration double that of interest (adjusting the pH to 5 if needed with the appropriate acid or an 8 M sodium hydroxide solution), then mixing 0.3 mL of this solution with 0.3 mL of a thawed aCgn solution. This solution was then divided into twelve aliquots, each 50 μL in volume, and incubated at an elevated temperature, as described below.
15 μL, of each aCgn sample were injected into an Agilent 1200 series HPLC, equipped with a Zorbax GF-250 (4.6×250 mm, 4 micron) size exclusion column and a UV-Vis detector, during a sequence. The HPLC mobile phase contained 25 mM citric acid monohydrate, 25 mM sodium acetate, and 200 mM sodium chloride with the pH adjusted to 4.0 using sodium hydroxide. The flow rate was set at 1 mL/min and samples were monitored at 280 nm.
Peak area at each time point was compared to the peak area for an unstressed sample to create a monomer loss profile normalized with respect to the initial concentration. Each profile was compared to a profile for a sample containing no cosolute to determine the change in aggregation rate upon addition of the cosolute. For a control, each aggregation experimental setup had one protein solution that contained no cosolute to verify that the baseline aggregation rate remained constant amongst all experiments.
The most notable consequence of perturbing a protein's environment is the enhancement or inhibition of protein aggregation. Deyoung L R et al. (1993) Accounts Chem Res 26:614-620; Fink A L (1998) Fold Des 3:R9-R23. The guanidinium-modified dendrimers were added to model protein solutions and incubated at an elevated temperature to determine how they influence the rate of this degradation pathway. […] At low dendrimer concentrations (0.05 M), the rate of monomer loss in the presence of the surface-modified dendrimer is slower than when compared to the reference solution. However, this aggregation rate reduction is insignificant when compared to the rate reduction induced by a high concentration of other commonly used additives such as arginine hydrochloride (ArgHCl), which is also depicted in the figure. Furthermore, as the concentration of the surface-modified dendrimer is increased, the aggregation rate reduction decreases until ultimately, the rate of aggregation is increased. At a concentration of 0.2 M, the surface-modified dendrimer induced rapid aggregation, causing a 50% loss in about 10 minutes as opposed to 30 minutes for the solution containing no cosolute. […]
For orientation: In gel filtration, larger molecules generally elute earlier.

For the molecule `N=C(N)NCCNC(=O)CCN(CCC(=O)NCCNC(=N)N)CCN(CCC(=O)NCCNC(=N)N)CCC(=O)NCCNC(=N)N.O=P(O)(O)O.O=P(O)(O)O.O=P(O)(O)O.O=P(O)(O)O.O=P(O)(O)O.O=P(O)(O)O` [Gdm(H2PO4)], the “Con A t95/t95, 0 (Shelf-Life Extension Factor)” value (from here on “Con A t95/t95”) in data set [1] (listed as Dend. 0 Gdm(H2PO4)) was determined as 1.6. For the same molecule, the “Con A t95/t95” value in data set [1] (listed as phosphate form) was “minimal improvement”. The “V0 partial molar volume at infinite dilution” value in data set [2] amounted to 0.7254 L/mol. In data set [3], the “dTm/d[3] aCgn denaturation midpoint temperature increment” value came to 37.4 K * L/mol and the “rate of increase of Tm of aCgn” value is reported as 37.4 ° C.*M^−1. Further, in data set [4] (10 mg/mL aCgn, pH 5, 52.5° C.), the “relative rate constant for aCgn monomer loss” value is reported as “approximately 0.02”. In addition, the “aCgn t95/t95, 0 (Shelf-Life Extension Factor)” value in data set [4] is 18.9.
With `N=C(N)NCCNC(=O)CCN(CCC(=O)NCCNC(=N)N)CCN(CCC(=O)NCCNC(=N)N)CCC(=O)NCCNC(=N)N.O=S(=O)(O)O.O=S(=O)(O)O.O=S(=O)(O)O` [Gdm(SO4)1/2], the “Con A t95/t95” value in data set [1] worked out at 5.9. Moreover, the “V0 partial molar volume at infinite dilution” value in data set [2] is 0.5665 L/mol. In addition, in data set [3], the “dTm/d[3] aCgn denaturation midpoint temperature increment” value is reported as 15.2 K * L/mol and the “rate of increase of Tm of aCgn” value came to 15.2 ° C.*M^−1. Also, in data set [4] (10 mg/mL aCgn, pH 5, 52.5° C.), the “aCgn aggregation suppression compared with other salt forms / generations (FIG. 5, 6, 8)” value is recorded as “nearly identical ability for inhibiting aggregation as the H2PO4 salt form” and the “relative rate constant for aCgn monomer loss” value is recorded as “approximately 0.02”. Further, the “aCgn t95/t95, 0 (Shelf-Life Extension Factor)” value in data set [4] is listed as 26.9.
